Patent US10947574B2, “Method for producing fermented carotenoid using carotenoid-producing bacteria obtained by using cobalt-containing culturing medium” (ENEOS CORPORATION, priority 2015, dated 2021)

Tested on: Paracoccus carotinifaciens strain E-396 (FERM BP-4283)
Experiment: Example 3: cobalt concentration series, growth (OD610) and carotenoid levels (HPLC)
Type: cell-based
Experimental: In the following examples, carotenoids were quantified by high performance liquid chromatography (HPLC) as follows.
Two columns of Inertsil SIL-100A, 5 μm (ϕ4.6 mm×250 mm) (GL Sciences Inc., Japan) were connected together for use as a column. For elution, a mixed solution of n-hexane, tetrahydrofuran and methanol (40:20:1) serving as a mobile phase was passed through the column at a flow rate of 1.0 mL per minute at a constant temperature around room temperature. For measurement, samples were each dissolved in tetrahydrofuran and diluted 100-fold with the mobile phase, and 20 μL aliquots of the resulting dilutions were injected into the column. The column eluates were detected at a wavelength of 470 nm. As a standard for quantification, astaxanthin (SIGMA, Cat. No. A9335) was used. The astaxanthin concentration of the standard solution was determined using the following equation after measuring the absorbance (A) of the standard solution at 477 nm and the area percentage % (B) of the astaxanthin peak in HPLC analysis under the above conditions.
Subsequently, a medium of the following composition (glucose 30 g/L, filtered corn steep liquor 30 g/L, ammonium sulfate 1.5 g/L, potassium dihydrogen phosphate 1.5 g/L, disodium hydrogen phosphate dodecahydrate 3.8 g/L, calcium chloride dihydrate 5.0 g/L, magnesium sulfate heptahydrate 0.7 g/L, iron sulfate heptahydrate 1.0 g/L, silicon-based defoaming agent 0.2 g/L) was dispensed in 7.2 ml volumes into cotton-plugged test tubes having an inner diameter of 18 mm to prepare 12 test tubes containing a test tube medium for production. The ingredients used to prepare the test tube medium for production were obtained from lots where microbial cells had been confirmed not to grow well.
The resulting culture solution was then inoculated in 0.05 ml volumes into the 12 types of test tube media for production having different cobalt concentrations, and cultured under shaking at 28° C. for 4 days at 300 spm.
The cobalt concentration in the cobalt chloride-free medium and the concentration of cobalt chloride added to each medium were summed up to calculate the concentration of cobalt present in each medium (Table 6).
After being cultured for 4 days, the culture solutions were each measured for microbial cell growth by OD610 and measure for carotenoid levels by HPLC. […] Moreover, FIGS. 2 to 4 show graphs plotted in enlarged scale for the high and low concentration ranges of cobalt present in the medium.

[1] = cobalt added 0.00042 μmol/L, present 0.0024 μmol/L
[2] = cobalt added 0.0042 μmol/L, present 0.0062 μmol/L
[3] = cobalt added 0.0084 μmol/L, present 0.0104 μmol/L
[4] = cobalt added 0.021 μmol/L, present 0.023 μmol/L
[5] = cobalt added 0.042 μmol/L, present 0.044 μmol/L
[6] = cobalt added 0.42 μmol/L, present 0.42 μmol/L
[7] = cobalt added 1.1 μmol/L, present 1.05 μmol/L
[8] = cobalt added 4.2 μmol/L, present 4.2 μmol/L
[9] = cobalt added 8.4 μmol/L, present 8.4 μmol/L
[10] = cobalt added 21 μmol/L, present 21 μmol/L
[11] = cobalt added 42 μmol/L, present 42 μmol/L

O.O.O.O.O.O.[Cl-].[Cl-].[Co+2] [Cobalt chloride hexahydrate]
Carotenoid: 3-Hydroxyechinenone [1]: 0.1 mg/L
Carotenoid: Adonirubin [1]: 0.0 mg/L
Carotenoid: Adonixanthin [1]: 3.0 mg/L
Carotenoid: Astaxanthin [1]: 0.8 mg/L
Carotenoid: Asteroidenone [1]: 0.1 mg/L
Carotenoid: Canthaxanthin [1]: 0.0 mg/L
Carotenoid: Echinenone [1]: 0.0 mg/L
Carotenoid: β-Carotene [1]: 0.2 mg/L
OD610 [1]: 5
Total carotenoid [1]: 4.1 mg/L
Carotenoid: 3-Hydroxyechinenone [2]: 0.3 mg/L
Carotenoid: Adonirubin [2]: 0.4 mg/L
Carotenoid: Adonixanthin [2]: 7.0 mg/L
Carotenoid: Astaxanthin [2]: 3.6 mg/L
Carotenoid: Asteroidenone [2]: 0.3 mg/L
Carotenoid: Canthaxanthin [2]: 0.1 mg/L
Carotenoid: Echinenone [2]: 0.2 mg/L
Carotenoid: β-Carotene [2]: 1.0 mg/L
OD610 [2]: 9
Total carotenoid [2]: 12.9 mg/L
Carotenoid: 3-Hydroxyechinenone [3]: 0.4 mg/L
Carotenoid: Adonirubin [3]: 1.3 mg/L
Carotenoid: Adonixanthin [3]: 4.0 mg/L
Carotenoid: Astaxanthin [3]: 11.7 mg/L
Carotenoid: Asteroidenone [3]: 0.4 mg/L
Carotenoid: Canthaxanthin [3]: 0.9 mg/L
Carotenoid: Echinenone [3]: 0.4 mg/L
Carotenoid: β-Carotene [3]: 1.1 mg/L
OD610 [3]: 18
Total carotenoid [3]: 20.2 mg/L
Carotenoid: 3-Hydroxyechinenone [4]: 0.5 mg/L
Carotenoid: Adonirubin [4]: 8.3 mg/L
Carotenoid: Adonixanthin [4]: 3.1 mg/L
Carotenoid: Astaxanthin [4]: 26.5 mg/L
Carotenoid: Asteroidenone [4]: 0.4 mg/L
Carotenoid: Canthaxanthin [4]: 3.4 mg/L
Carotenoid: Echinenone [4]: 1.4 mg/L
Carotenoid: β-Carotene [4]: 1.0 mg/L
OD610 [4]: 34
Total carotenoid [4]: 44.5 mg/L
Carotenoid: 3-Hydroxyechinenone [5]: 0.5 mg/L
Carotenoid: Adonirubin [5]: 6.4 mg/L
Carotenoid: Adonixanthin [5]: 3.5 mg/L
Carotenoid: Astaxanthin [5]: 25.5 mg/L
Carotenoid: Asteroidenone [5]: 0.4 mg/L
Carotenoid: Canthaxanthin [5]: 2.6 mg/L
Carotenoid: Echinenone [5]: 1.2 mg/L
Carotenoid: β-Carotene [5]: 0.8 mg/L
OD610 [5]: 35
Total carotenoid [5]: 40.9 mg/L
Carotenoid: 3-Hydroxyechinenone [6]: 0.7 mg/L
Carotenoid: Adonirubin [6]: 5.8 mg/L
Carotenoid: Adonixanthin [6]: 3.2 mg/L
Carotenoid: Astaxanthin [6]: 28.6 mg/L
Carotenoid: Asteroidenone [6]: 0.5 mg/L
Carotenoid: Canthaxanthin [6]: 2.3 mg/L
Carotenoid: Echinenone [6]: 1.2 mg/L
Carotenoid: β-Carotene [6]: 0.8 mg/L
OD610 [6]: 37
Total carotenoid [6]: 42.9 mg/L
Carotenoid: 3-Hydroxyechinenone [7]: 0.4 mg/L
Carotenoid: Adonirubin [7]: 7.0 mg/L
Carotenoid: Adonixanthin [7]: 1.7 mg/L
Carotenoid: Astaxanthin [7]: 26.8 mg/L
Carotenoid: Asteroidenone [7]: 0.3 mg/L
Carotenoid: Canthaxanthin [7]: 3.1 mg/L
Carotenoid: Echinenone [7]: 1.2 mg/L
Carotenoid: β-Carotene [7]: 0.8 mg/L
OD610 [7]: 37
Total carotenoid [7]: 41.3 mg/L
Carotenoid: 3-Hydroxyechinenone [8]: 0.2 mg/L
Carotenoid: Adonirubin [8]: 14.3 mg/L
Carotenoid: Adonixanthin [8]: 0.7 mg/L
Carotenoid: Astaxanthin [8]: 14.2 mg/L
Carotenoid: Asteroidenone [8]: 0.1 mg/L
Carotenoid: Canthaxanthin [8]: 8.1 mg/L
Carotenoid: Echinenone [8]: 1.4 mg/L
Carotenoid: β-Carotene [8]: 0.7 mg/L
OD610 [8]: 33
Total carotenoid [8]: 39.7 mg/L
Carotenoid: 3-Hydroxyechinenone [9]: 0.1 mg/L
Carotenoid: Adonirubin [9]: 11.9 mg/L
Carotenoid: Adonixanthin [9]: 0.3 mg/L
Carotenoid: Astaxanthin [9]: 9.3 mg/L
Carotenoid: Asteroidenone [9]: 0.1 mg/L
Carotenoid: Canthaxanthin [9]: 9.9 mg/L
Carotenoid: Echinenone [9]: 2.0 mg/L
Carotenoid: β-Carotene [9]: 0.8 mg/L
OD610 [9]: 31
Total carotenoid [9]: 34.4 mg/L
Carotenoid: 3-Hydroxyechinenone [10]: 0.1 mg/L
Carotenoid: Adonirubin [10]: 6.5 mg/L
Carotenoid: Adonixanthin [10]: 0.2 mg/L
Carotenoid: Astaxanthin [10]: 1.9 mg/L
Carotenoid: Asteroidenone [10]: 0.1 mg/L
Carotenoid: Canthaxanthin [10]: 9.4 mg/L
Carotenoid: Echinenone [10]: 2.8 mg/L
Carotenoid: β-Carotene [10]: 1.2 mg/L
OD610 [10]: 23
Total carotenoid [10]: 22.2 mg/L
Carotenoid: 3-Hydroxyechinenone [11]: 0.0 mg/L
Carotenoid: Adonirubin [11]: 0.2 mg/L
Carotenoid: Adonixanthin [11]: 0.0 mg/L
Carotenoid: Astaxanthin [11]: 0.1 mg/L
Carotenoid: Asteroidenone [11]: 0.0 mg/L
Carotenoid: Canthaxanthin [11]: 0.1 mg/L
Carotenoid: Echinenone [11]: 0.0 mg/L
Carotenoid: β-Carotene [11]: 0.0 mg/L
OD610 [11]: 3
Total carotenoid [11]: 0.4 mg/L
